Results from PubChem BioAssay (NCI).
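At the GI50, growth is halved. TGI: concentration producing complete growth inhibition.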

Columns and labels:
Experiment in all cases: growth of human tumour cells (NCI), 384-well format
HOP-62 NSCLC = tested on: HOP-62 NSCLC
TK-10 renal = tested on: TK-10 renal
SK-MEL-28 melanoma = tested on: SK-MEL-28 melanoma
CCRF-CEM leukemia = tested on: CCRF-CEM leukemia
IGROV1 ovarian = tested on: IGROV1 ovarian
BT-549 breast = tested on: BT-549 breast
HS 578T breast = tested on: HS 578T breast
ACHN renal = tested on: ACHN renal
MDA-MB-231 breast = tested on: MDA-MB-231 breast
PC-3 prostate = tested on: PC-3 prostate
SF-295 CNS = tested on: SF-295 CNS
HOP-92 NSCLC = tested on: HOP-92 NSCLC
HT29 colon = tested on: HT29 colon
NCI-H226 lung = tested on: NCI-H226 lung
MDA-MB-435 melanoma = tested on: MDA-MB-435 melanoma
KM12 colon = tested on: KM12 colon
786-0 renal = tested on: 786-0 renal
T-47D breast = tested on: T-47D breast
CAKI-1 renal = tested on: CAKI-1 renal
HCT-15 colon = tested on: HCT-15 colon
SK-MEL-5 melanoma = tested on: SK-MEL-5 melanoma
SN12C renal = tested on: SN12C renal
OVCAR-8 ovarian = tested on: OVCAR-8 ovarian
OVCAR-4 ovarian = tested on: OVCAR-4 ovarian
SNB-19 CNS = tested on: SNB-19 CNS
NCI-H460 NSCLC = tested on: NCI-H460 NSCLC
UACC-62 melanoma = tested on: UACC-62 melanoma
NCI/ADR-RES ovarian = tested on: NCI/ADR-RES ovarian
DU-145 prostate = tested on: DU-145 prostate
MALME-3M melanoma = tested on: MALME-3M melanoma
MDA-MB-468 breast = tested on: MDA-MB-468 breast
HCC-2998 colon = tested on: HCC-2998 colon
OVCAR-5 ovarian = tested on: OVCAR-5 ovarian
NCI-H522 lung = tested on: NCI-H522 lung
RPMI-8226 leukemia = tested on: RPMI-8226 leukemia
HCT-116 colon = tested on: HCT-116 colon
NCI-H23 lung = tested on: NCI-H23 lung
A549 NSCLC = tested on: A549 NSCLC
NCI-H322M lung = tested on: NCI-H322M lung
HL-60(TB) leukemia = tested on: HL-60(TB) leukemia
COLO 205 colon = tested on: COLO 205 colon
MCF7 breast = tested on: MCF7 breast
RXF 393 renal = tested on: RXF 393 renal
U251 glioblastoma = tested on: U251 glioblastoma
SF-539 CNS = tested on: SF-539 CNS
MOLT-4 leukemia = tested on: MOLT-4 leukemia
SW-620 colon = tested on: SW-620 colon
UACC-257 melanoma = tested on: UACC-257 melanoma
OVCAR-3 ovarian = tested on: OVCAR-3 ovarian
UO-31 renal = tested on: UO-31 renal
M14 melanoma = tested on: M14 melanoma
SF-268 CNS = tested on: SF-268 CNS
K-562 leukemia = tested on: K-562 leukemia
SK-OV-3 ovarian = tested on: SK-OV-3 ovarian
SNB-75 CNS = tested on: SNB-75 CNS
A498 renal = tested on: A498 renal
EKVX NSCLC = tested on: EKVX NSCLC
LOX IMVI melanoma = tested on: LOX IMVI melanoma

## COc1ccc(Oc2cc(NCCC(F)(F)F)c3ncc(-c4ccc(C(=O)NC5CC5)c(C)c4)n3n2)c(F)c1F
HOP-62 NSCLC
  GI50: < 0.01 µM
  TGI: 4.93 µM
TK-10 renal
  GI50: 5.83 µM
  TGI: 62.2 µM
SK-MEL-28 melanoma
  GI50: 9.92 µM
  TGI: 40.7 µM
CCRF-CEM leukemia
  GI50: < 0.01 µM
  TGI: < 0.01 µM
IGROV1 ovarian
  GI50: 0.337 µM
  TGI: 46.4 µM
BT-549 breast
  GI50: 0.256 µM
  TGI: 17 µM
HS 578T breast
  GI50: 0.0204 µM
  TGI: 2.32 µM
ACHN renal
  GI50: 0.169 µM
  TGI: 26.9 µM
MDA-MB-231 breast
  GI50: 0.365 µM
  TGI: 30.1 µM
PC-3 prostate
  GI50: 1.43 µM
  TGI: 28.8 µM
SF-295 CNS
  GI50: 1.41 µM
  TGI: 31.2 µM
HOP-92 NSCLC
  GI50: 1.16 µM
  TGI: 14.5 µM
HT29 colon
  GI50: < 0.01 µM
  TGI: > 100 µM
NCI-H226 lung
  GI50: 4.83 µM
  TGI: 54.4 µM
MDA-MB-435 melanoma
  GI50: 0.286 µM
  TGI: 70 µM
KM12 colon
  GI50: 0.271 µM
  TGI: > 100 µM
786-0 renal
  GI50: < 0.01 µM
  TGI: 14.3 µM
T-47D breast
  GI50: 2.11 µM
  TGI: 34.8 µM
CAKI-1 renal
  GI50: 0.208 µM
  TGI: 2.48 µM
HCT-15 colon
  GI50: < 0.01 µM
  TGI: 12.2 µM
SK-MEL-5 melanoma
  GI50: < 0.01 µM
  TGI: 18.5 µM
SN12C renal
  GI50: 18.5 µM
  TGI: > 100 µM
OVCAR-8 ovarian
  GI50: < 0.01 µM
  TGI: 3.68 µM
OVCAR-4 ovarian
  GI50: 13.9 µM
  TGI: 67 µM
SNB-19 CNS
  GI50: 2.8 µM
  TGI: 39.8 µM
NCI-H460 NSCLC
  GI50: < 0.01 µM
  TGI: 1.17 µM
UACC-62 melanoma
  GI50: 0.0441 µM
  TGI: 8.83 µM
NCI/ADR-RES ovarian
  GI50: < 0.01 µM
  TGI: 0.568 µM
DU-145 prostate
  GI50: < 0.01 µM
  TGI: > 100 µM
MALME-3M melanoma
  GI50: 0.182 µM
  TGI: 26.7 µM
MDA-MB-468 breast
  GI50: < 0.01 µM
  TGI: 3.47 µM
HCC-2998 colon
  GI50: 13.1 µM
  TGI: > 100 µM
OVCAR-5 ovarian
  GI50: 0.977 µM
  TGI: > 100 µM
NCI-H522 lung
  GI50: 0.682 µM
  TGI: 14.3 µM
RPMI-8226 leukemia
  GI50: < 0.01 µM
  TGI: 24.5 µM
HCT-116 colon
  GI50: < 0.01 µM
  TGI: > 100 µM
NCI-H23 lung
  GI50: < 0.01 µM
  TGI: 29.6 µM
A549 NSCLC
  GI50: < 0.01 µM
  TGI: 18.4 µM
NCI-H322M lung
  GI50: 2.14 µM
  TGI: > 100 µM
HL-60(TB) leukemia
  GI50: < 0.01 µM
  TGI: < 0.01 µM
COLO 205 colon
  GI50: < 0.01 µM
  TGI: > 100 µM
MCF7 breast
  GI50: 1.75 µM
  TGI: 85 µM
RXF 393 renal
  GI50: < 0.01 µM
  TGI: 0.932 µM
U251 glioblastoma
  GI50: < 0.01 µM
  TGI: 17.4 µM
SF-539 CNS
  GI50: < 0.01 µM
  TGI: 2.11 µM
MOLT-4 leukemia
  GI50: < 0.01 µM
  TGI: < 0.01 µM
SW-620 colon
  GI50: < 0.01 µM
  TGI: 18.5 µM
UACC-257 melanoma
  GI50: 3.09 µM
  TGI: 25.4 µM
OVCAR-3 ovarian
  GI50: 0.365 µM
  TGI: 17.5 µM
UO-31 renal
  GI50: < 0.01 µM
  TGI: 20 µM
M14 melanoma
  GI50: 0.0101 µM
  TGI: 15.2 µM
SF-268 CNS
  GI50: < 0.01 µM
  TGI: < 0.01 µM
K-562 leukemia
  GI50: 0.264 µM
  TGI: > 100 µM
SK-OV-3 ovarian
  GI50: 0.459 µM
  TGI: 27 µM
SNB-75 CNS
  GI50: 0.0544 µM
  TGI: 13.3 µM
A498 renal
  GI50: 0.189 µM
  TGI: 7.86 µM
EKVX NSCLC
  GI50: 5.88 µM
  TGI: 84.2 µM
LOX IMVI melanoma
  GI50: < 0.01 µM
  TGI: 11.5 µM
